Experiments:
[1] = system: MC38 murine colon carcinoma cells; assay: Example 2: tumor growth delay, MC38 tumors (5×10^5 cells) in C57BL/6 mice; type: in vivo, mouse; details: HBI-8000 50 mg/kg p.o. qd×21, anti-PD-1 5 mg/kg i.p. biwk×3
Protocol: Animals that exited the study for tumor volume endpoint were documented as euthanized for tumor progression (TP), with the date of euthanasia. The time to endpoint (TTE) for analysis was calculated for each mouse by the following equation:
[formula] where TTE is expressed in days, endpoint volume is expressed in mm^3, b is the intercept, and m is the slope of the line obtained by linear regression of a log-transformed tumor growth data set. The data set consisted of the first observation that exceeded the endpoint volume used in analysis and the three consecutive observations that immediately preceded the attainment of this endpoint volume. The calculated TTE is usually less than the TP date, the day on which the animal was euthanized for tumor burden. […] In instances in which the log-transformed calculated TTE preceded the day prior to reaching endpoint or exceeded the day of reaching tumor volume endpoint, a linear interpolation was performed to approximate the TTE. […]
Treatment Outcome: Treatment outcome was evaluated from tumor growth delay (TGD), which is defined as the increase in the median time to endpoint (TTE) in a treatment group compared to the control group: TGD=T−C expressed in days, or as a percentage of the median TTE of the control group: […]
Treatment Efficacy: Treatment efficacy may be determined from the tumor volumes of animals remaining in the study on the last day. […]

HDAC 3 = HDAC 3 (Homo sapiens, UniProt O15379); details: reported by Ning et al.; cited from earlier work
HDAC 3, sequence (O15379 whole entry): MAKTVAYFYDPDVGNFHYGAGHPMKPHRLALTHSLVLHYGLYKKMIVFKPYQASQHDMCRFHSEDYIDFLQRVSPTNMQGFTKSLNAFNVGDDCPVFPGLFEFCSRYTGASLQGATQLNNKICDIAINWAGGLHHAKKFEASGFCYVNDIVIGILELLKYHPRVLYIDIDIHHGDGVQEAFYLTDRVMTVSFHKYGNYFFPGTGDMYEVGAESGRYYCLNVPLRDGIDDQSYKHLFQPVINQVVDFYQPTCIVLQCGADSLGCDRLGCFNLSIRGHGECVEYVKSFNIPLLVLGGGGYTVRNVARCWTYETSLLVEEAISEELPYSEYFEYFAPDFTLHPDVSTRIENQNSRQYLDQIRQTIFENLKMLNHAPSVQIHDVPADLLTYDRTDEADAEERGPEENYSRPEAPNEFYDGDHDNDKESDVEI
HDAC 3, sequence (Q9Y618 395-489 partner limits assumed): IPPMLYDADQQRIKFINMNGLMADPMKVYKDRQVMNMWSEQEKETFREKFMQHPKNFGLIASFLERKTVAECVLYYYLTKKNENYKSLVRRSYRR

[2] = oral administration; cited from earlier work

In the case of Nc1cc(F)ccc1NC(=O)c1ccc(CNC(=O)/C=C/c2cccnc2)cc1 [HBI-8000, N-(2-amino-4-fluorophenyl)-4-[[[(2E)-1-oxo-3-(3-pyridinyl)-2-propen-1-yl]amino]methyl]benz amide], the “Median TTE” value ([1]; endpoint 1000 mm^3 or Day 50, n=10) is listed as 19.4 days, the “% TGD” value ([1]; vs vehicle) is listed as 19% and the “activity at HDAC 3 compared with Entinostat” value (HDAC 3) is listed as “more active than Entinostat”. For the same molecule, the “inhibition of HDAC 3” value (HDAC 3) was “low nanomolar concentrations” and the t1/2 [2] was “about 17 hours”.

Source: patent publication US12122833B2, “Combination therapies of HDAC inhibitors and PD-1 inhibitors” (HUYABIO International, LLC, priority 2016, dated 2024)
